This is an account of results in patent US20260097111A1, “ETHER LIPIDS FOR HYPERACTIVATION OF MAMMALIAN DENDRITIC CELLS” (priority 2022, published 2026).

Test [1] deals with myeloid cells in dLN and spleen. Nature of the test: Myeloid cells in dLN and spleen after SC injection (flow cytometry). In kind it is in vivo, mice. The text has this:
dLN Dissection and Dissociation. […] The dLN were then transported on ice to Corner Therapeutics labs. The dLN was then processed using a Miltenyi spleen dissociation kit according to manufacturer's protocol. In brief, the dLN from each mouse was transferred into the gentleMACS C Tube containing the enzyme mix. The dLN were then dissociated using the gentleMACS Program 37C_m_SDK_1. Cell suspensions were then collected and filtered through a 30 μm Pre-Separation Filter. Cells were counted using the Moxi automated counter, then resuspended in 400 ul of FACS buffer for cell staining.
Spleen Dissection and Dissociation. […] The spleen samples were then transported on ice to Corner Therapeutics labs. Spleen samples were then processed a Miltenyi spleen dissociation kit according to manufacturer's protocol. In brief, each spleen was transferred into the gentleMACS C Tube containing the enzyme mix. The spleens were then dissociated using the gentleMACS program 37C_m_SDK_1. ACK lysis was performed for 2 min. Cell suspensions were then collected and filtered through a 30 μm Pre-Separation Filter. Cells were counted using the Moxi automated counter, then resuspended in 400 ul of FACS buffer for cell staining.
Flow Cytometry. Single cell suspension from the draining lymph or spleen were resuspended in 100 μL PBS containing Live/Dead Violet (1:1000) and incubated for 20 min at 4° C. Cells were then washed and resuspend in 100 μL FACS buffer containing Fc block (1:100) for 10 min. For myeloid cell staining, cells were then resuspended in 100 μL of antibodies detailed in Table 13-1 to identify monocytes as CD11b^+ Ly6C^+F4/80^neg MHC^neglive cells, moDCs as CD11b^+ Ly6C^+F4/80^neg MHC^+ live cells, macrophages as F4/80^+ MHC^+CD24^neg live cells, and DCs as CD11c^+MHC-II^+ F4/80^neg live cells. Counter Bright counting beads were added before the acquisition of samples.
On the technique in general: Flow cytometry measures light scatter and fluorescence of single cells or particles in a stream.

The subject of another test is human moDCs. As to the kind of experiment: IL-6 secretion by human moDCs. The class given is cell-based. As to conditions: human moDCs, 41.25 μM lipid with R848, compared with R848 + vehicle; FIG. 16.
A further test relates to human moDC. As to the kind of experiment: IL-1β ELISA, human moDC treated with R848, DGP, MCC950. In kind it is cell-based. As for the experimental part:
Monocyte Isolation, Storage, and Differentiation into moDC. Human leukapheresis blood products were freshly obtained from AllCells via same day or overnight shipping at 4° C. Miltenyi StraightFrom Leukopak CD14 MicroBead isolation kits were used according to manufacturer instructions to isolate CD14+ monocytes. Briefly, leukopaks ranging in quantity from 5×10^9 to 1×10^10 total nucleated cells were evenly aliquoted into 50 mL conical tubes. Cells were incubated with CD14 microbeads and then loaded on the MultiMACS using the program “Possel2”. After washing out the negative population, CD14+ cells were eluted from the columns and counted. An aliquot of monocytes was used to stain for purity of cells to ensure that isolated live cells were […] CD11c+CD14+ by flow cytometry. […] Vials were placed in CoolCell freezing containers and placed in a −80° C. freezer and stored no longer than 1 week. Frozen cells were transferred for long-term storage to the vapor phase of a liquid nitrogen freezer until use.
To differentiate monocytes into moDC, vials of cells were taken out of the liquid nitrogen freezer and quickly thawed in a 37° C. water bath. Cells were diluted ten-fold in warmed R10++ media containing 50 units/mL benzonase. R10++ media was composed of RPMI 1640 media containing 10% fetal bovine serum, 50 units/mL penicillin, […] streptomycin, 2 mM L-glutamine, 1 mM sodium pyruvate, […] beta-mercaptoethanol, 10 mM HEPES, and 1% Gibco MEM non-essential amino acids. After gentle mixing by inversion of tubes, cells were incubated at 37° C. for 10 min. Cells were pelleted at 400×g for 5 min and supernatant was aspirated. Cells were resuspended in R10++ media and counted on the MoxiGo by diluting an aliquot in PBS containing a final concentration of 2.5 μg/mL propidium iodide. Cells were plated in T75 culture flasks at 3-6×10^7 cells per flask in a total of 20 mL R10++ media containing a final concentration of 50 ng/mL GM-CSF and 25 ng/mL IL-4. Three days after the start of culture, an additional 10 mL R10++ containing 50 ng/mL GM-CSF and 25 ng/mL IL-4 was added to each flask.
Six days after start of differentiation. R10++ media containing cells were placed into 50 mL conical tubes. Flasks were washed with an additional 10 mL PBS and also collected. […] Cells were resuspended in R10++ media and counted on the MoxiGo by diluting an aliquot in PBS containing a final concentration of 2.5 μg/mL propidium iodide. Cells were then adjusted to 1×10^6 cells/mL in R10++ media.
moDC Treatment. Human moDC were plated at 1×10^5 cells/well in 96-well flat-bottom tissue culture plates in R10++ media by adding 100 μL of cells per well. To each well, a 25 μL solution of R10++ containing 400 ng/mL GM-CSF and 200 ng/mL IL-4 was added.
Lyophilized R848 stocks were prepared as described above and frozen at −80° C. An aliquot of frozen R848 was thawed and further diluted to 11.4 μM in R10++ (4 μg/mL R848). Cell culture conditions receiving R848 treatment had 50 μL added to wells. For wells not receiving R848, 50 μL R10++ was added to wells. Lyophilized MCC950 was prepared as described above and stored at −20° C. MCC950 was further diluted to 40 uM in a prepared R10++ solution containing 11.4 μM R848. Cells receiving R848 and MCC950 treatment had 50 μL added to wells. Final concentrations of R848 and MCC950 in a total 200 μL volume were respectively 2.85 μM and 10 μM.
A4.44% solution of KP407 dissolved in sterile, distilled water was prepared at a temperature of 4° C. […]

`CCCCCCCCCCCCCCCCCCCCCCOC[C@@H](O)COP(=O)(O)O` [Compound 2, 1-docosyl-sn-glycerol-3-phosphate]: in test [1] (4 hours post SC injection vs PBS, FIG. 50A), the “absolute number of monocytes in the dLN” value is “did not induce an increase in the absolute number of cells in the dLN at 4 hours”. In addition, the “absolute number of moDCs in the dLN” value in test [1] (4 hours post SC injection vs PBS, FIG. 50B) is listed as “did not induce an increase in the absolute number of moDCs in the dLN”. In addition, the “CD69 MFI on myeloid cells in the dLN” value in test [1] (4 hours post SC injection vs PBS, FIG. 52A-D) is given as “did not induce CD69 upregulation on myeloid cells in the dLN”. Besides, the “CD69 MFI on myeloid cells in the spleen” value in test [1] (4 hours post SC injection vs PBS, FIG. 53A-D) is on record as “did not induce the upregulation of CD69 on myeloid cells in the spleen”. Moreover, the “CCR7 MFI on DCs in the dLN and spleen” value in test [1] (4 hours post SC injection, FIG. 54A-B) is listed as “did not induce the upregulation of CCR7”. For the same compound, in test [1] (48 hours post SC injection vs PBS, FIG. 51A), the “monocytes in the spleen” value is listed as “decreased the levels of monocytes in the spleen”. Besides, the “abundance of macrophages and cDCs in the dLN” value in test [1] (48 hours post SC injection, FIG. 50C-D) is “did not increase”. For the same compound, the IL-6 secretion result in the test with human moDCs is listed as “IL-6 was secreted at similar levels”. Further, the “concentration of DGP sufficient in combination with R848 to significantly increase IL-1β secretion” value with human moDC (donor HD94) is 20.6 µM; with human moDC (donor HD95), 82.5 µM; with human moDC (donors HD93 and HD96) it was “at least 41.3 uM”. In addition, the IL-1β result in the test with human moDC (without addition of R848, DGP 0-82.5 μM, overnight, FIG. 21) is recorded as “less than 100 μg/mL”.
